Assay results reported in patent US20240124454A1, “TRICYCLIC COMPOUND AND USE THEREOF” (NANJING ZAIMING PHARMACEUTICAL CO., LTD., priority 2020, published 2024).
Like-named read-outs stand apart in the source and are kept apart here.

Molecular target: MAT2A (Homo sapiens (Human), UniProt P31153)
Test: MAT2A biochemical test (inorganic phosphate colorimetric, PiColorLock)
Details: read-out: MAT2A inhibitory Activity IC50
Text: Test Example 1. Biochemical Test
The brief introduction of the test principle: L-methionine and ATP can be converted into SAM, inorganic phosphate, and inorganic diphosphate under the catalysis of MAT2A enzymes. The content of inorganic phosphate in the sample can be quantitatively determined by adding a developer such as ammonium molybdate or the like to the enzymatic reaction mixture, thereby reflecting the enzymatic activity of MAT2A.
Reference: The experiment referred to the method disclosed in patent WO2018045071.
Material: MAT2A screening kits were purchased from BPS bioscience (U.S.); 384-well plates were purchased from Corning Company (U.S.). • 1. MAT2A protein (Pharmaron Beijing Co., Ltd.); • 2. L-methionine (Sigma #M9625-5G) • 3. ATP (Sigma #A7699-1G) • 4. KCl (Sigma #60142-500ML-F) • 5. Tris (Sigma #T2663-1L) • 6. MgCl2 (Sigma #M1028) • 7. EDTA (Invitrogen #AM9260G) • 8. BSA (Sangon Biotech #A500023-0100) • 9. PiColorLock (abcam #ab270004)
Detection method: In the experimental group, the test compound was dissolved in DMSO, diluted to a final concentration of 10 μM using Echo, and diluted 3-fold. 80 nL of the dilution was transferred to a 384-well plate.
The experimental buffer (50 mM Tris, 50 mM KCl, 15 mM MgCl2, 100 μM EDTA, 0.005% BSA) was prepared. The MAT2A protein was diluted with the experimental buffer (at final concentration of […]). 40 μL of 2×MAT2A solution was added to the 384-well plate. The plate was centrifuged at 1000 rpm for 1 min and incubated at room temperature for 120 min.
L-methionine and ATP (the final concentration of L-methionine was […] and the final concentration of ATP was 400 μM) were diluted with the experimental buffer. 40 μL of 2×L-methionine and ATP solution was added to initiate the reaction. The plate was centrifuged at 1000 rpm for 1 min and incubated at room temperature for 90 min.
The PiColorLock™ reaction catalyst was mixed with the PiColorLock™ buffer at a ratio of 1:100 according to the instructions. 20 μL was added to each well, and the plate was shaken for 30 s. 8 μL stabilizing reagent was added, and the plate was shaken for 30 s. The signal values were measured after 30 min of incubation at room temperature.
A negative control group and a positive control group were respectively used as Bottom and Top. The negative control group was not added with MAT2A protein, and other operations were consistent with those of the experimental group. The positive control group was not added with the test compound, only added with DMSO in the same volume, and other operations were consistent with those of the experimental group.
The % Compound inhibition was calculated and fitted to give the IC50 of the compound.
% Compound inhibition=1-100%×(Signal−Bottom)/(Top−Bottom).
Signal referred to the signal value of the experimental group, Bottom referred to the average signal value of the negative control group, and Top referred to the average signal value of the positive control group.
Under the condition of this experiment, the inhibitory effect of the test compound on MAT2A can be expressed as the IC50 of the inhibition on the phosphate production level during the enzymatic reaction.

Sequence of MAT2A (P31153 whole entry): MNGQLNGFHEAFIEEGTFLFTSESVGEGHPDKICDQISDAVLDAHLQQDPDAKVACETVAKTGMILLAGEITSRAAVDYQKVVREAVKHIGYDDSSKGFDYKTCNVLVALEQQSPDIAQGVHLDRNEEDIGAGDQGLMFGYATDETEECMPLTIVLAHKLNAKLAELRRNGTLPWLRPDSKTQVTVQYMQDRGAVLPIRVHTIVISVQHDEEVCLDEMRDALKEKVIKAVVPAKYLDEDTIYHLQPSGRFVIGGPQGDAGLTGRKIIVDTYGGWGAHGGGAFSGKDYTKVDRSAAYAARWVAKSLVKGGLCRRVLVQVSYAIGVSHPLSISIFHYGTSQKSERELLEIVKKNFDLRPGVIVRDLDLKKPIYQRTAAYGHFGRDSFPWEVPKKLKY

| SMILES | IC50 (class symbols) [nM] | IC50 (numeric values) [nM] |
| --- | --- | --- |
| Cc1ccccc1-n1c(=O)c2ncn(C)c2c2ccc(C(F)(F)F)nc21 [Compound 31, 1-methyl-5-(2-methylphenyl)-7-(trifluoromethyl)-1,5-dihydro-4H-imidazo[4,5-c][1,8]naphthyridin-4-one] | 100 to 500 | 159 |
| Cn1cnc2c(=O)n(-c3ccc(F)cc3Cl)c3nc(C(F)(F)F)ccc3c21 [Compound 32, 5-(2-chloro-4-fluorophenyl)-1-methyl-7-(trifluoromethyl)-1,5-dihydro-4H-imidazo[4,5-c][1,8]naphthyridin-4-one] | 100 to 500 | 119 |
| O=c1c2ocnc2c2ccc(C(F)(F)F)nc2n1-c1ccccc1Cl [Compound 51, 5-(2-chlorophenyl)-7-(trifluoromethyl)oxazolo[5,4-c][1,8]naphthyridin-4(5H)-one] | 100 to 500 | 182 |
| Cc1ccc2c3c(ncn3C)c(=O)n(-c3ccccc3Cl)c2n1 [Compound 56, 5-(2-chlorophenyl)-1,7-dimethyl-1,5-dihydro-4H-imidazo[4,5-c][1,8]naphthyridin-4-one] | < 100 | 73.7 |
| COc1ccc(-n2c(=O)c3ncn(C)c3c3ccc(C(F)(F)F)nc32)cc1 [Compound 59, 5-(4-methoxyphenyl)-1-methyl-7-(trifluoromethyl)-1,5-dihydro-4H-imidazo[4,5-c][1,8]naphthyridin-4-one] | 100 to 500 | 252 |
| Cn1nccc1-n1c(=O)c2ncn(C)c2c2ccc(C(F)(F)F)nc21 [Compound 60, 1-methyl-5-(1-methyl-1H-pyrazol-5-yl)-7-(trifluoromethyl)-1,5-dihydro-4H-imidazo[4,5-c][1,8]naphthyridin-4(5H)-one] | 100 to 500 | – |
| CCn1cnc2c(=O)n(-c3ccccc3Cl)c3nc(C(F)(F)F)ccc3c21 [Compound 61, 5-(2-chlorophenyl)-1-ethyl-7-(trifluoromethyl)-1,5-dihydro-4H-imidazo[4,5-c][1,8]naphthyridin-4-one] | 100 to 500 | 102 |
| Cn1cnc2c(=O)n(-c3ccc(Cl)cc3Cl)c3nc(C(F)(F)F)ccc3c21 [Compound 62, 5-(2,4-dichlorophenyl)-1-methyl-7-(trifluoromethyl)-1,5-dihydro-4H-imidazo[4,5-c][1,8]naphthyridin-4-one] | 100 to 500 | 251 |
| Cn1cnc2c(=O)n(-c3cccc(F)c3)c3nc(C(F)(F)F)ccc3c21 [Compound 63, 5-(3-fluorophenyl)-1-methyl-7-(trifluoromethyl)-1,5-dihydro-4H-imidazo[4,5-c][1,8]naphthyridin-4-one] | < 100 | 48.1 |
| Cc1ncccc1-n1c(=O)c2ncn(Cc3cnn(C)c3)c2c2ccc(C(F)(F)F)nc21 [Compound 74, 1-((1-methyl-1H-pyrazol-4-yl)methyl)-5-(2-methylpyridin-3-yl)-7-(trifluoromethyl)-1,5-dihydro-4H-imidazo[4,5-c][1,8]naphthyridin-4-one] | 100 to 500 | 140 |
| Cc1ncccc1-n1c(=O)c2ncoc2c2ccc(Cl)cc21 [Compound 83, 7-chloro-5-(2-methylpyridin-3-yl)oxazolo[4,5-c]quinolin-4(5H)-one] | < 100 | 54.7 |

Further lines, results first:

| IC50 (class symbols) [nM] | IC50 (numeric values) [nM] | SMILES |
| --- | --- | --- |
| < 100 | 67.6 | COc1ccccc1-n1c(=O)c2ncn(C)c2c2ccc(C(F)(F)F)nc21 [Compound 33, 5-(2-methoxyphenyl)-1-methyl-7-(trifluoromethyl)-1,5-dihydro-4H-imidazo[4,5-c][1,8]naphthyridin-4-one] |
| < 100 | 73.1 | CC(C)c1ccccc1-n1c(=O)c2ncn(C)c2c2ccc(C(F)(F)F)nc21 [Compound 34, 5-(2-isopropylphenyl)-1-methyl-7-(trifluoromethyl)-1,5-dihydro-4H-imidazo[4,5-c][1,8]naphthyridin-4-one] |
| 100 to 500 | 113 | O=c1c2ncn(CCO)c2c2ccc(C(F)(F)F)nc2n1-c1ccccc1Cl [Compound 50, 5-(2-chlorophenyl)-1-(2-hydroxyethyl)-7-(trifluoromethyl)-1,5-dihydro-4H-imidazo[4,5-c][1,8]naphthyridin-4-one] |
| < 100 | 47.2 | Cn1cnc2c(=O)n(-c3cccc(C#N)c3)c3nc(C(F)(F)F)ccc3c21 [Compound 52, 3-(1-methyl-4-oxo-7-(trifluoromethyl)-1,4-dihydro-5H-imidazo[4,5-c][1,8]naphthyridin-5-yl)benzonitrile] |
| 100 to 500 | 314 | CN(C)CCn1cnc2c(=O)n(-c3ccccc3Cl)c3nc(C(F)(F)F)ccc3c21 [Compound 53, 5-(2-chlorophenyl)-1-(2-(dimethylamino)ethyl)-7-(trifluoromethyl)-1,5-dihydro-4H-imidazo[4,5-c][1,8]naphthyridin-4-one] |
| 500 to 1000 | 530 | CNCCn1cnc2c(=O)n(-c3ccccc3Cl)c3nc(C(F)(F)F)ccc3c21 [Compound 54, 5-(2-chlorophenyl)-1-(2-(methylamino)ethyl)-7-(trifluoromethyl)-1,5-dihydro-4H-imidazo[4,5-c][1,8]naphthyridin-4-one] |
| 100 to 500 | 296 | NCCn1cnc2c(=O)n(-c3ccccc3Cl)c3nc(C(F)(F)F)ccc3c21 [Compound 55, 1-(2-aminoethyl)-5-(2-chlorophenyl)-7-(trifluoromethyl)-1,5-dihydro-4H-imidazo[4,5-c][1,8]naphthyridin-4-one] |
| < 100 | 47.3 | Cn1cnc2c(=O)n(-c3cccc(F)c3Cl)c3cc(C(F)(F)F)ccc3c21 [Compound 66, 5-(2-chloro-3-fluorophenyl)-1-methyl-7-(trifluoromethyl)-1,5-dihydro-4H-imidazo[4,5-c]quinolin-4-one] |
| 100 to 500 | 282 | Cn1cnc2c(=O)n(-c3ccc(OC(F)F)cn3)c3nc(C(F)(F)F)ccc3c21 [Compound 69, 5-(5-(difluoromethoxy)pyridin-2-yl)-1-methyl-7-(trifluoromethyl)-1,5-dihydro-4H-imidazo[4,5-c][1,8]naphthyridin-4-one] |
| 500 to 1000 | 978 | Cn1cnc2c(=O)n(-c3ccc(OC(F)F)c(F)c3)c3nc(C(F)(F)F)ccc3c21 [Compound 71, 5-[4-(difluoromethoxy)-3-fluorophenyl]-1-methyl-7-(trifluoromethyl)-1,5-dihydro-4H-imidazo[4,5-c][1,8]naphthyridin-4-one] |
| < 100 | 71.7 | Cc1ncccc1-n1c(=O)c2ncn(C)c2c2cnc(C(F)(F)F)nc21 [Compound 75, 1-methyl-5-(2-methylpyridin-3-yl)-7-(trifluoromethyl)-1,5-dihydro-4H-imidazo[4′,5′:4,5]pyrido[2,3-d]pyrimidin-4-one] |
| 100 to 500 | 201 | Cn1cnc2c(=O)n(-c3cncnc3)c3nc(C(F)(F)F)ccc3c21 [Compound 76, 1-methyl-5-(pyrimidin-5-yl)-7-(trifluoromethyl)-1,5-dihydro-4H-imidazo[4,5-c][1,8]naphthyridin-4-one] |
| 100 to 500 | 337 | Cn1cnc2c(=O)n(-c3cnccn3)c3nc(C(F)(F)F)ccc3c21 [Compound 77, 1-methyl-5-(pyrazin-2-yl)-7-(trifluoromethyl)-1,5-dihydro-4H-imidazo[4,5-c][1,8]naphthyridin-4-one] |
| < 100 | 80.2 | Cn1cnc2c(=O)n(-c3cccc(F)c3F)c3nc(C(F)(F)F)ccc3c21 [Compound 78, 5-(2,3-difluorophenyl)-1-methyl-7-(trifluoromethyl)-1,5-dihydro-4H-imidazo[4,5-c][1,8]naphthyridin-4-one] |
| 100 to 500 | 102 | Cc1ncncc1-n1c(=O)c2ncn(C)c2c2ccc(C(F)(F)F)nc21 [Compound 79, 1-methyl-5-(4-methylpyrimidin-5-yl)-7-(trifluoromethyl)-1,5-dihydro-4H-imidazo[4,5-c][1,8]naphthyridin-4-one] |
